Source: ChEMBL document CHEMBL4145553, “Design, synthesis, and biological evaluation of novel amide and hydrazide based thioether analogs targeting Histone deacteylase (HDAC) enzymes” (Eur J Med Chem, 2018)

How the values were obtained:
HCC 2998 [1] = assay: Growth inhibition of human HCC2998 cells assessed as cell growth at 10^-8 M incubated for 48 hrs by sulforhodamine B assay relative to control; assay type: functional; conditions: HCC 2998, 48 h, read-out: Activity
UO-31 [2] = assay: Growth inhibition of human UO31 cells assessed as cell growth at 10^-8 M incubated for 48 hrs by sulforhodamine B assay relative to control; assay type: functional; conditions: UO-31, 48 h, read-out: Activity
NCI-H23 [3] = assay: Growth inhibition of human NCI-H23 cells assessed as cell growth at 10^-7 M incubated for 48 hrs by sulforhodamine B assay relative to control; assay type: functional; conditions: NCI-H23, 48 h, read-out: Activity
NCI-H322M = assay: Growth inhibition of human NCI-H322M cells assessed as cell growth at 10^-7 M incubated for 48 hrs by sulforhodamine B assay relative to control; assay type: functional; conditions: read-out: Activity
SNB-19 [4] = assay: Growth inhibition of human SNB19 cells assessed as cell growth at 10^-7 M incubated for 48 hrs by sulforhodamine B assay relative to control; assay type: functional; conditions: SNB-19, 48 h, read-out: Activity
SNB-75 = assay: Growth inhibition of human SNB75 cells assessed as cell growth at 10^-7 M incubated for 48 hrs by sulforhodamine B assay relative to control; assay type: functional; conditions: SNB-75, 48 h, read-out: Activity
U-251 = assay: Growth inhibition of human U251 cells assessed as cell growth at 10^-7 M incubated for 48 hrs by sulforhodamine B assay relative to control; assay type: functional; conditions: U-251, 48 h, read-out: Activity
Malme-3M = assay: Growth inhibition of human MALME-3M cells assessed as cell growth at 10^-7 M incubated for 48 hrs by sulforhodamine B assay relative to control; assay type: functional; conditions: read-out: Activity
NCI/ADR-RES = assay: Growth inhibition of human NCI/ADR-RES cells assessed as cell growth at 10^-7 M incubated for 48 hrs by sulforhodamine B assay relative to control; assay type: functional; conditions: read-out: Activity
SK-OV-3 = assay: Growth inhibition of human SKOV3 cells assessed as cell growth at 10^-7 M incubated for 48 hrs by sulforhodamine B assay relative to control; assay type: functional; conditions: SK-OV-3, 48 h, read-out: Activity
ACHN = assay: Growth inhibition of human ACHN cells assessed as cell growth at 10^-7 M incubated for 48 hrs by sulforhodamine B assay relative to control; assay type: functional; conditions: read-out: Activity
SNB-19 [5] = assay: Growth inhibition of human SNB19 cells assessed as cell growth at 10^-6 M incubated for 48 hrs by sulforhodamine B assay relative to control; assay type: functional; conditions: SNB-19, 48 h, read-out: Activity
SN12C = assay: Growth inhibition of human SN12C cells assessed as cell growth at 10^-6 M incubated for 48 hrs by sulforhodamine B assay relative to control; assay type: functional; conditions: read-out: Activity
UO-31 [6] = assay: Growth inhibition of human UO31 cells assessed as cell growth at 10^-6 M incubated for 48 hrs by sulforhodamine B assay relative to control; assay type: functional; conditions: UO-31, 48 h, read-out: Activity
T47D = assay: Growth inhibition of human T47D cells assessed as cell growth at 10^-6 M incubated for 48 hrs by sulforhodamine B assay relative to control; assay type: functional; conditions: read-out: Activity
HCT-15 = assay: Growth inhibition of human HCT15 cells assessed as cell growth at 10^-5 M incubated for 48 hrs by sulforhodamine B assay relative to control; assay type: functional; conditions: HCT-15, 48 h, read-out: Activity
A549 = assay: Growth inhibition of human A549/ATCC cells assessed as cell growth at 10^-4 M incubated for 48 hrs by sulforhodamine B assay relative to control; assay type: functional; conditions: A549, 48 h, read-out: Activity
SF-268 = assay: Growth inhibition of human SF268 cells assessed as cell growth at 10^-4 M incubated for 48 hrs by sulforhodamine B assay relative to control; assay type: functional; conditions: SF-268, 48 h, read-out: Activity
UACC-62 = assay: Growth inhibition of human UACC62 cells assessed as cell growth at 10^-4 M incubated for 48 hrs by sulforhodamine B assay relative to control; assay type: functional; conditions: UACC-62, 48 h, read-out: Activity
OVCAR-5 = assay: Growth inhibition of human OVCAR5 cells assessed as cell growth at 10^-4 M incubated for 48 hrs by sulforhodamine B assay relative to control; assay type: functional; conditions: OVCAR-5, 48 h, read-out: Activity
UO-31 [7] = assay: Growth inhibition of human UO31 cells assessed as cell growth at 10^-4 M incubated for 48 hrs by sulforhodamine B assay relative to control; assay type: functional; conditions: UO-31, 48 h, read-out: Activity
CCRF-CEM = assay: Growth inhibition of human CCRF-CEM cells incubated for 48 hrs by sulforhodamine B assay; assay type: functional
NCI-H23 [8] = assay: Growth inhibition of human NCI-H23 cells incubated for 48 hrs by sulforhodamine B assay; assay type: functional; conditions: NCI-H23, 48 h
NCI-H522 = assay: Growth inhibition of human NCI-H522 cells incubated for 48 hrs by sulforhodamine B assay; assay type: functional; conditions: NCI-H522, 48 h
HCC 2998 [9] = assay: Growth inhibition of human HCC2998 cells incubated for 48 hrs by sulforhodamine B assay; assay type: functional; conditions: HCC 2998, 48 h
UACC-257 = assay: Growth inhibition of human UACC257 cells incubated for 48 hrs by sulforhodamine B assay; assay type: functional; conditions: UACC-257, 48 h
MDA-MB-231 = assay: Growth inhibition of human MDA-MB-231 cells incubated for 48 hrs by sulforhodamine B assay; assay type: functional; conditions: MDA-MB-231, 48 h
MDA-MB-468 = assay: Growth inhibition of human MDA-MB-468 cells incubated for 48 hrs by sulforhodamine B assay; assay type: functional; conditions: MDA-MB-468, 48 h
MDA-MB-435 = assay: Induction of apoptosis in human MDA-MB-435 cells assessed as necrotic cells by propidium iodide/Annexin V staining based flow cytometry (reference value: 0.24%); assay type: functional
Histone deacetylase 1 = Histone deacetylase 1 (Homo sapiens, UniProt Q13547); assay: Inhibition of human HDAC1 by ELISA
[10] = read-out: LC50 (the source's name)
[11] = read-out: pLC50 (the source's name) (converted)

Sequence of Histone deacetylase 1 (Q13547 whole entry): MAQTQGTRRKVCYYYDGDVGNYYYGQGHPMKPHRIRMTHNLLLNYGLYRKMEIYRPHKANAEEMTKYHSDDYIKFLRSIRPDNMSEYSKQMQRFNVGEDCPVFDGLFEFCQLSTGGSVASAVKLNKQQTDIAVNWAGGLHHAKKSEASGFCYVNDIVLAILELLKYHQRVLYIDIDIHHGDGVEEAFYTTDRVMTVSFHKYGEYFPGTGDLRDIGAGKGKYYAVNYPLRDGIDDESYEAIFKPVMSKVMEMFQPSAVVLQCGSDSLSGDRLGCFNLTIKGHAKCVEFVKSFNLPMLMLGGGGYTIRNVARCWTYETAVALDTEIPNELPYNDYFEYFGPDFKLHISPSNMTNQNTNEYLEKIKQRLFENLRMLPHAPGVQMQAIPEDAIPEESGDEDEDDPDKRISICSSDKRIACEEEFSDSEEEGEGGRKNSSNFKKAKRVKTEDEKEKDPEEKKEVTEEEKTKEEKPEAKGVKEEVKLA

SMILES: CCS/C(Nc1ccccc1)=C(\C#N)C(=O)Nc1ccc(OC)cc1
- growth at 0.01 µM (HCC 2998 [1]): 102%
- growth at 0.01 µM (UO-31 [2]): 93%
- growth at 0.1 µM (NCI-H23 [3]): 99%
- growth at 0.1 µM (NCI-H322M): 92%
- growth at 0.1 µM (SNB-19 [4]): 95%
- growth at 0.1 µM (SNB-75): 84%
- growth at 0.1 µM (U-251): 98%
- growth at 0.1 µM (Malme-3M): 92%
- growth at 0.1 µM (NCI/ADR-RES): 95%
- growth at 0.1 µM (SK-OV-3): 88%
- growth at 0.1 µM (ACHN): 93%
- growth at 1 µM (SNB-19 [5]): 84%
- growth at 1 µM (SN12C): 96%
- growth at 1 µM (UO-31 [6]): 87%
- growth at 1 µM (T47D): 88%
- growth at 10 µM (HCT-15): 16%
- growth at 100 µM (A549): 15%
- growth at 100 µM (SF-268): 11%
- growth at 100 µM (UACC-62): 6%
- growth at 100 µM (OVCAR-5): 23%
- growth at 100 µM (UO-31 [7]): 16%
- GI50 (CCRF-CEM; read-out: GI50): 1.83 µM
- CC50 (CCRF-CEM; [10]): > 100 µM
- TGI (CCRF-CEM; read-out: TGI): > 100 µM
- GI50 (CCRF-CEM; read-out: pGI50 (converted)): 1.82 µM
- CC50 (CCRF-CEM; [11]): > 100 µM
- TGI (CCRF-CEM; read-out: pTGI): > 100 µM
- GI50 (NCI-H23 [8]; read-out: GI50): 4.9 µM
- LC50 (NCI-H23 [8]; read-out: LC50): > 100 µM
- TGI (NCI-H23 [8]; read-out: TGI): > 100 µM
- GI50 (NCI-H23 [8]; read-out: pGI50 (converted)): 4.9 µM
- LC50 (NCI-H23 [8]; read-out: pLC50 (converted)): > 100 µM
- TGI (NCI-H23 [8]; read-out: pTGI): > 100 µM
- GI50 (NCI-H522; read-out: GI50): 2.21 µM
- CC50 (NCI-H522; [10]): > 100 µM
- TGI (NCI-H522; read-out: TGI): 9.68 µM
- GI50 (NCI-H522; read-out: pGI50 (converted)): 2.19 µM
- CC50 (NCI-H522; [11]): > 100 µM
- TGI (NCI-H522; read-out: pTGI (converted)): 9.77 µM
- GI50 (HCC 2998 [9]; read-out: GI50): 6.56 µM
- CC50 (HCC 2998 [9]; [10]): > 100 µM
- TGI (HCC 2998 [9]; read-out: TGI): > 100 µM
- GI50 (HCC 2998 [9]; read-out: pGI50 (converted)): 6.61 µM
- CC50 (HCC 2998 [9]; [11]): > 100 µM
- TGI (HCC 2998 [9]; read-out: pTGI): > 100 µM
- GI50 (UACC-257; read-out: GI50): 21.2 µM
- CC50 (UACC-257; [10]): > 100 µM
- TGI (UACC-257; read-out: TGI): > 100 µM
- GI50 (UACC-257; read-out: pGI50 (converted)): 21.4 µM
- CC50 (UACC-257; [11]): > 100 µM
- TGI (UACC-257; read-out: pTGI): > 100 µM
- GI50 (MDA-MB-231; read-out: GI50): 4.14 µM
- CC50 (MDA-MB-231; [10]): > 100 µM
- TGI (MDA-MB-231; read-out: TGI): 36.5 µM
- GI50 (MDA-MB-231; read-out: pGI50 (converted)): 4.17 µM
- CC50 (MDA-MB-231; [11]): > 100 µM
- TGI (MDA-MB-231; read-out: pTGI (converted)): 36.3 µM
- GI50 (MDA-MB-468; read-out: GI50): 1.39 µM
- CC50 (MDA-MB-468; [10]): > 100 µM
- TGI (MDA-MB-468; read-out: TGI): 7.51 µM
- GI50 (MDA-MB-468; read-out: pGI50 (converted)): 1.38 µM
- CC50 (MDA-MB-468; [11]): > 100 µM
- TGI (MDA-MB-468; read-out: pTGI (converted)): 7.59 µM
- Activity (MDA-MB-435): 1.63%
- IC50 (Histone deacetylase 1): 0.038 µM
